Measurements as given in patent US20220401385A1, “Combination Therapy Based on PD-1 Signaling Inhibitors” (Kyoto University, priority 2019, published 2022).

Test system: MC38 cells
Experiment: MC38 mouse therapy model, tumor growth and survival
Format: in vivo, C57BL/6 mice
Experimental: FIG. 1-1 a) CD8^+ T cells or CD3^+ T cells were isolated from mice, and 2×10^5 cells were stimulated with CD3/CD28 beads in 96-well U plates. After 24 hours and 48 hours, cells and culture supernatant were collected, followed by measurement of spermidine (SPD) concentration by mass spectrometry. […] Ten days after inoculation, PD-L1 antibody (2 mg/kg), PD-L1 antibody+SPD (2 mg/kg), or SPD alone was administered. Subsequently, PD-L1 antibody was administered 4 times at a regular interval of 5 days, and SPD was administered 8 times at a regular interval of 3 days. Tumor growth curve and survival curve are shown. c) Draining lymph nodes (DLNs) of mice were isolated 13 days after tumor inoculation, and stained with antibodies to CD8, CD44 and CD62L. The number of cells in draining lymph node (cells/DLN) in each treatment group is shown at the left side. After being gated, CD8^+ T cells were fractionated with CD44 and CD62L into P1 to P4 cell populations. Percentages and cell numbers of P1 to P4 in each treatment group are shown. d) Tumor was isolated 13 days after tumor inoculation and treated with collagenase. Percentages and numbers per mg tumor of tumor-infiltrating CD8^+ CD45.2^+ cells are shown. For statistical analysis, ANOVA was used. * p<0.05, ** p<0.01, *** p<0.001, **** p<0.0001.
FIG. 8 MC38 cells (5×10^5) were intradermally inoculated into C57BL/6 mice. Ten days after inoculation, PD-L1 antibody (2 mg/kg), PD-L1 antibody+SPD (2 mg/kg) or PD-L1 antibody+SPM (6 mg/kg) was administered. Subsequently, […] was administered 4 times at a regular interval of 5 days, whereas SPD and SPM were administered 8 times at a regular interval of 3 days. Tumor growth curve is shown.
MC38 cells (5×10^5) were intradermally injected on the right flank. Ten days after inoculation, PD-L1 antibody (1-111A; prepared by and stored at the Department of Immunology and Genomic Medicine, Graduate School of Medicine, Kyoto University) (Immunology Letters 84 (2002) 57-62) (2 mg/kg), PD-L1 antibody+SPD (2 mg/kg) or SPD alone was administered to mice. Subsequently, PD-L1 antibody was administered 4 times at a regular interval of 5 days, and SPD was administered 8 times at a regular interval of 3 days. Tumors were measured on every alternate day, and tumor volumes were calculated using the formula for typical ellipsoid, π×(length×breadth×height/6).

SMILES: NCCCNCCCCNCCCN [SPM, spermine]
- effectiveness compared with SPD in enhancing the antitumor effect of PD-1 inhibitory antibody (SPM 6 mg/kg versus SPD 2 mg/kg, each + PD-L1 antibody, MC38): slightly less effective than SPD
- enhancement of the antitumor effect of PD-1 inhibitory antibody (SPM (6 mg/kg) + PD-L1 antibody (2 mg/kg), MC38 in C57BL/6 mice): induced to some extent an enhancement
